# Assay results reported in patent US9616022B1, “Nanodiamond compositions and their use for drug delivery” (THE FLORIDA INTERNATIONAL UNIVERSITY BOARD OF TRUSTEES, priority 2016, dated 2017).
# Experiments:
# [1] = Solubility in water or PBS; format: physicochemical
# Source text: In some embodiments, the efficacy of the ND-EFV formulation can be further optimized by making a suspension of the formulation in a liquid. Being hydrophobic molecules, both EFV and ND were insoluble in water or phosphate buffer saline (PBS). In certain embodiments, solvents with ratios of PBS to DMSO (dimethyl sulfoxide) ranging from 1:1 to 1:9 were used to make the ND-EFV formulation soluble in physiological buffer media. In an exemplary embodiment, a PBS:DMSO ratio of approximately 1:9 was used for making a ND-EFV suspension, which was subsequently diluted in preparation to perform biological experiments.
# [2] = system: in-vitro BBB model (HBMVEC and astrocytes); assay: Drug delivery through in-vitro BBB model; format: in vitro ADME, human; settings: 40 μg/mL in upper chamber, 30 min to Day 2
# Procedure: Primary human brain microvascular endothelial cells (HBMVEC) and astrocytes were obtained from Sciencell Research Laboratories, Carlsbad, Calif. An in-vitro BBB model was established in trans-well plate as per published protocol.^47,48 HBMVECs were inoculated at the upper side of 0.4-μm pore size PTFE membrane tissue culture inserts (Corning, N.Y.) at initial concentration of 10^4 cells/well. A confluent layer of human astrocytes was grown on the lower side of the membrane. After incubation, integrity of the BBB was measured with transendothelial electrical resistance (TEER) using Millicell ERS microelectrodes (Millipore). […] Afterwards, cell media was collected at different time points (30 mins, 1 hr, Day 1, and Day 2) from the lower chamber and the upper chamber was replenished with fresh media. The drug content of the collected medium was measured through HPLC as mentioned above.
# HIV-1 Ba-L = assay: Anti-HIV-1 efficacy, p24 ELISA in infected primary human macrophages; format: cell-based; settings: 40 μg/mL, HIV-1 infected macrophages, supernatant Day 0-7
# Procedure: ND-EFV was investigated for anti-HIV-1 efficacy in primary human macrophage. Human peripheral blood mononuclear cells (PBMCs) were isolated from a healthy subject and differentiated into macrophages as previously published.^45 PBMCs were isolated with Ficoll-Hypaque (Pharmacia) gradient and cells were incubated for differentiation for 7 days in the presence of human macrophage colony stimulating factor (MCSF, Sigma) to macrophages. Following incubation, macrophages were infected with HIV-1 1Ba-L (NIH AIDS research and reference reagent program Cat#510) (100 ng/mL) for 24 hrs. On the next day, cells were washed to get rid of any unattached virus and fresh media was added. At the same time, 40 μg/mL of ND-EFV and unformulated EFV was added to these cells in two different setups. The HIV-1 infected macrophages served as a positive control. The […] treated cells were monitored for up to 10 days along with the infected control cells. The cell supernatant was collected at Day 0, 1, 2, 3, 5, and 7 post-treatment. The viral p24 level in the supernatant was measured with p24 ELISA assay (Cat. #0801200, Zeptometrix, USA). The p24 level at different time points provided the level of viral inhibition caused by ND-EFV and EFV. The p24 level at the culture supernatant will be inversely proportional to therapeutic efficacy of ND-EFV.
smiles,measurement,setting,value
"O=C1Nc2ccc(Cl)cc2[C@@](C#CC2CC2)(C(F)(F)F)O1 [EFV, Efavirenz]",solubility in water or phosphate buffer saline (PBS),[1],insoluble
same,EFV drug release on the CNS side (lower chamber) of the BBB model,[2],very robust drug release
same,time over which HIV-1 replication (p24 level) was controlled,HIV-1 Ba-L,≤ 5 days
